Measurements from the supplement of paper PMC10307832.

Legend:
Experiment in all cases: relative viability (nuclei count vs DMSO), 5 days (fraction); higher = more cells survive
NCI-H2126 = test system: NCI-H2126
How it was run: (§1)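 Relative viability equals treated-well nuclei counts divided by vehicle-well nuclei counts. Counts came from 4× images of lung cancer cell lines grown in 1536-well plates for 5 days after pin-tool dosing on the day after seeding. Dosing used one drug alone or a fixed anchor-drug dose plus five library-drug doses (not always all listed) in √10 steps, and values are medians of duplicate plates.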

SW 1573 = test system: SW 1573
How it was run: as §1

NCI-H2085 = test system: NCI-H2085
How it was run: as §1

NCI-H1993 = test system: NCI-H1993
How it was run: as §1

LC-2-ad = test system: LC-2-ad
How it was run: as §1

LU99A = test system: LU99A
How it was run: as §1

ABC-1 = test system: ABC-1
How it was run: as §1

NCI-H2023 = test system: NCI-H2023
How it was run: as §1

NCI-H838 = test system: NCI-H838
How it was run: as §1

EPLC-272H = test system: EPLC-272H
How it was run: as §1

UMC-11 = test system: UMC-11
How it was run: as §1

HCC-15 = test system: HCC-15
How it was run: as §1

HARA = test system: HARA
How it was run: as §1

PC-14 = test system: PC-14
How it was run: as §1

COR-L23 = test system: COR-L23
How it was run: as §1

NCI-H1651 = test system: NCI-H1651
How it was run: as §1

NCI-H650 = test system: NCI-H650
How it was run: as §1

NCI-H1355 = test system: NCI-H1355
How it was run: as §1

NCI-H358 = test system: NCI-H358
How it was run: as §1

NCI-H1915 = test system: NCI-H1915
How it was run: as §1

NCI-H2347 = test system: NCI-H2347
How it was run: as §1

HCC-44 = test system: HCC-44
How it was run: as §1

HOP-62 = test system: HOP-62
How it was run: as §1

Question: Which results are given for `COc1nc(C)cnc1NS(=O)(=O)c1cccnc1-c1ccc(-c2nnco2)cc1` [Zibotentan] + O=C(CCCCCCC(=O)Nc1ccccc1)NO [Vorinostat] (partner 1 µM)?
Answer: relative viability (NCI-H2126; first compound 0.08 µM): 0.844; relative viability (NCI-H2126; first compound 0.253 µM): 0.765; relative viability (NCI-H2126; first compound 0.8 µM): 0.651; relative viability (NCI-H2126; first compound 2.53 µM): 0.831; relative viability (SW 1573; first compound 0.08 µM): 0.76; relative viability (SW 1573; first compound 0.8 µM): 0.957; relative viability (SW 1573; first compound 2.53 µM): 0.885; relative viability (NCI-H2085; first compound 0.08 µM): 0.762; relative viability (NCI-H2085; first compound 0.253 µM): 0.766; relative viability (NCI-H2085; first compound 0.8 µM): 0.769; relative viability (NCI-H2085; first compound 2.53 µM): 0.824; relative viability (NCI-H1993; first compound 0.08 µM): 1.05; relative viability (NCI-H1993; first compound 0.253 µM): 0.764; relative viability (NCI-H1993; first compound 0.8 µM): 0.826; relative viability (NCI-H1993; first compound 2.53 µM): 0.988; relative viability (LC-2-ad; first compound 0.08 µM): 0.751; relative viability (LC-2-ad; first compound 0.253 µM): 0.723; relative viability (LC-2-ad; first compound 0.8 µM): 0.739; relative viability (LC-2-ad; first compound 2.53 µM): 0.731; relative viability (LU99A; first compound 0.08 µM): 0.514; relative viability (LU99A; first compound 0.253 µM): 0.537; relative viability (LU99A; first compound 0.8 µM): 0.463; relative viability (LU99A; first compound 2.53 µM): 0.477; relative viability (ABC-1; first compound 0.08 µM): 1.01; relative viability (ABC-1; first compound 0.253 µM): 0.77; relative viability (ABC-1; first compound 0.8 µM): 1.05; relative viability (ABC-1; first compound 2.53 µM): 1.53; relative viability (NCI-H2023; first compound 0.08 µM): 0.849; relative viability (NCI-H2023; first compound 0.8 µM): 0.562; relative viability (NCI-H2023; first compound 2.53 µM): 0.846; relative viability (NCI-H838; first compound 0.08 µM): 0.762; relative viability (NCI-H838; first compound 0.253 µM): 0.716; relative viability (NCI-H838; first compound 0.8 µM): 0.757; relative viability (NCI-H838; first compound 2.53 µM): 0.771; relative viability (EPLC-272H; first compound 0.253 µM): 0.506; relative viability (EPLC-272H; first compound 0.8 µM): 0.667; relative viability (EPLC-272H; first compound 2.53 µM): 0.501; relative viability (UMC-11; first compound 0.08 µM): 0.408; relative viability (UMC-11; first compound 0.253 µM): 0.418; relative viability (UMC-11; first compound 0.8 µM): 0.384; relative viability (UMC-11; first compound 2.53 µM): 0.293; relative viability (HCC-15; first compound 0.08 µM): 0.859; relative viability (HCC-15; first compound 0.253 µM): 0.863; relative viability (HCC-15; first compound 0.8 µM): 0.879; relative viability (HCC-15; first compound 2.53 µM): 0.84; relative viability (HARA; first compound 0.08 µM): 0.638; relative viability (HARA; first compound 0.253 µM): 0.633; relative viability (HARA; first compound 0.8 µM): 0.569; relative viability (HARA; first compound 2.53 µM): 0.568; relative viability (PC-14; first compound 0.08 µM): 0.937; relative viability (PC-14; first compound 0.253 µM): 0.421; relative viability (PC-14; first compound 0.8 µM): 0.81; relative viability (PC-14; first compound 2.53 µM): 0.77; relative viability (COR-L23; first compound 0.08 µM): 0.448; relative viability (COR-L23; first compound 0.253 µM): 0.446; relative viability (COR-L23; first compound 0.8 µM): 0.351; relative viability (COR-L23; first compound 2.53 µM): 0.46; relative viability (NCI-H1651; first compound 0.08 µM): 0.543; relative viability (NCI-H1651; first compound 0.253 µM): 0.492; relative viability (NCI-H1651; first compound 0.8 µM): 0.559; relative viability (NCI-H1651; first compound 2.53 µM): 0.461; relative viability (NCI-H650; first compound 0.08 µM): 0.53; relative viability (NCI-H650; first compound 0.253 µM): 0.403; relative viability (NCI-H650; first compound 0.8 µM): 0.625; relative viability (NCI-H650; first compound 2.53 µM): 0.536; relative viability (NCI-H1355; first compound 0.08 µM): 0.682; relative viability (NCI-H1355; first compound 0.253 µM): 0.584; relative viability (NCI-H1355; first compound 0.8 µM): 0.657; relative viability (NCI-H1355; first compound 2.53 µM): 0.69; relative viability (NCI-H358; first compound 0.08 µM): 0.563; relative viability (NCI-H358; first compound 0.253 µM): 0.552; relative viability (NCI-H358; first compound 2.53 µM): 0.751; relative viability (NCI-H1915; first compound 0.08 µM): 0.679; relative viability (NCI-H1915; first compound 0.253 µM): 0.53; relative viability (NCI-H1915; first compound 0.8 µM): 0.548; relative viability (NCI-H1915; first compound 2.53 µM): 0.572; relative viability (NCI-H2347; first compound 0.08 µM): 0.622; relative viability (NCI-H2347; first compound 0.253 µM): 0.566; relative viability (NCI-H2347; first compound 0.8 µM): 0.658; relative viability (NCI-H2347; first compound 2.53 µM): 0.744; relative viability (HCC-44; first compound 0.08 µM): 1.12; relative viability (HCC-44; first compound 0.253 µM): 1.08; relative viability (HCC-44; first compound 0.8 µM): 1.02; relative viability (HCC-44; first compound 2.53 µM): 1.08; relative viability (HOP-62; first compound 0.08 µM): 0.676; relative viability (HOP-62; first compound 0.253 µM): 0.57; relative viability (HOP-62; first compound 0.8 µM): 0.735; relative viability (HOP-62; first compound 2.53 µM): 0.623
